Laboratory results as given in patent US6177592A, “Compounds” (priority 1997, dated 2001).

Key:
[1] = test system: CEM-3B cells (CEM-SS cells infected with HIV-1IIIB); assay: Survival rate of HIV-1IIIB-infected CEM-SS cells (CEM-3B); type: cell-based; conditions: for survival rate of cells: one day
Procedure: (§1) GM (0, 4, 8 or 16 μM) was added to 2×10^5 cell/ml of CEM-SS cells (ATCC CCL-119) and to CEM-SS cells infected with HIV-1IIIB (wherein not less than 90% of the CEM-SS cells were infected with the HIV-1IIIB; hereinafter, referred to as CEM-3B) incubation was conducted for one day, viable cell numbers and dead cell numbers were counted and survival cell rate was calculated.

antigen-specific IgE = assay: Antigen-specific IgE production (48-hour rat PCA); type: in vivo, rat (Wistar); conditions: for IgE Titer: three days, control 64
Procedure: Yale rats of Wistar strain of five weeks age (one group consisting of five rats) (Nippon SLC) were sensitized by an intraperitoneal injection of 100 μl of 0.01% solution of egg white albumin (Sigma) in an aqueous physiological saline solution and 100 μl of Alum (trade name: Imject Alum; Pierce) and, after 14 days, blood was collected from abdominal artery.
The collected blood was centrifuged (at 2000 rpm for five minutes), plasma was separated and the amount of antigen-specific IgE was measured by a 48-hour rat passive cutaneous anaphylaxis (PCA) reaction.
Thus, serum was diluted with a physiological saline solution in a successively doubling manner ranging from 1/4 to 1/64 and each 0.1 ml thereof was subcutaneously injected to hair-clipped back of male rats of Wistar strain of seven weeks age. After 48 hours from the subcutaneous injection, 1 ml of a mixture of 0.05% egg white albumin and 0.5% Evans Blue (manufactured by Nacalai Tesque) was injected from tail vein. After 30 minutes from the injection from the tail vein, rats were subjected to decapitation and to exanguinated death, blue spots appeared on the back were observed, the spots with a diameter of 5 mm or more were judged to be positive and the highest dilution was adopted as an IgE titer.
In the GM-administered groups, 3 mg/kg or 30 mg/kg of GM was intraperitoneally administered once daily for three days from the antigen-sensitized day while, in the control group, distilled water was intraperitoneally administered by the same manner.

CEM-SS cells = assay: Survival rate of CEM-SS cells; type: cell-based; conditions: one day
Procedure: as §1

[2] = test system: DSEK cell (fibroblast strain from synovial membrane); assay: Growth of DSEK synovial fibroblasts (WST-1) and apoptosis; type: cell-based, human (patient suffering from chronic articular rheumatism)
Procedure: DSEK cell (cell strain stored at the Department of Second Internal Medicine, Integrated Medical Center, Saitama College of Medicine) which was a fibroblast strain established from synovial membrane of a patient suffering from chronic articular rheumatism was incubated in an Iscob-modified Dulbecco medium (IMDM, manufactured by Gibco, 12440-053) containing 10% fetal bovine serum (FBS, manufactured by Gibco, 26140-079) at 37° C. in the presence of 5% carbon dioxide gas until confluent and then the cells were collected by peeling off with trypsin-EDTA (manufactured by Gicbo, 25300-054). The cells were suspended in the above-mentioned medium until 25,000 cells/ml were resulted and each 100 μl was placed in each well of a 96-well microtiter plate. After five days from incubation when the state of confluence was almost achieved, the medium was discarded and then the above-mentioned medium containing 2.5, 5, 10, 20 or 30 μM of GM was added. After incubating for 24, 48 or 72 hours, 10 μl of a premix WST-1 (manufactured by Takara Shuzo, MK400) was added thereto followed by subjecting to a reaction at 37° C. for four hours. The value obtained by deducting the absorbance at 650 nm (A650) from that at 450 nm (A450) was defined as a degree of growth of cell.

topoisomerase I = target: T1, topoisomerase I (Homo sapiens, UniProt P11387); assay: Topoisomerase I inhibition; type: biochemical; conditions: 1 mM GM
T1 construct: pBR322 supercoil relaxation assay
Procedure: (2) Activity of GM for inhibiting the topoisomerase I was measured by the same method as in Example 17-(1) except that topoisomerase I [manufacturedby TopoGEN, 0.01 unit/y 1] was used instead of topoisomerase II; and 100 mM Tris-HCl (pH 7.9), 10 mM EDTA, 1 mM spermidine and 50% glycerol were used as a buffer with a ten-fold diluted concentration. Incidentally, as a sample, GM was added to make the final concentration 1 mM.

Jurkat cells = assay: Growth of Jurkat cells (MTT); type: cell-based, human; conditions: 24 hours
Procedure: (1) Jurkat cells (ATCC TIB-152) and Molt-3 cells (ATCC CRL-1552) which were human T cell leukemia cell stain were incubated in an RPMI 1640 medium (manufactured by Gibco BRL) containing 10% fetal calf serum (FCS, manufactured by Bio Whittaker) at 37° C. in the presence of 5% CO2 and the cells were then suspended in the above-mentioned medium containing 0, 5, 10 or 20 μM of GM to make the cell numbers 5×10^5 cells/ml followed by incubating for 24 hours. Cell growth was measured by an MTT method [Mosmann, et al.: J. Immunol. Methods, volume 65, pages 55-63 (1983)] wherein degree of cell growth was determined by the absorbance at 560 nm.

T1 sequence (P11387 whole entry): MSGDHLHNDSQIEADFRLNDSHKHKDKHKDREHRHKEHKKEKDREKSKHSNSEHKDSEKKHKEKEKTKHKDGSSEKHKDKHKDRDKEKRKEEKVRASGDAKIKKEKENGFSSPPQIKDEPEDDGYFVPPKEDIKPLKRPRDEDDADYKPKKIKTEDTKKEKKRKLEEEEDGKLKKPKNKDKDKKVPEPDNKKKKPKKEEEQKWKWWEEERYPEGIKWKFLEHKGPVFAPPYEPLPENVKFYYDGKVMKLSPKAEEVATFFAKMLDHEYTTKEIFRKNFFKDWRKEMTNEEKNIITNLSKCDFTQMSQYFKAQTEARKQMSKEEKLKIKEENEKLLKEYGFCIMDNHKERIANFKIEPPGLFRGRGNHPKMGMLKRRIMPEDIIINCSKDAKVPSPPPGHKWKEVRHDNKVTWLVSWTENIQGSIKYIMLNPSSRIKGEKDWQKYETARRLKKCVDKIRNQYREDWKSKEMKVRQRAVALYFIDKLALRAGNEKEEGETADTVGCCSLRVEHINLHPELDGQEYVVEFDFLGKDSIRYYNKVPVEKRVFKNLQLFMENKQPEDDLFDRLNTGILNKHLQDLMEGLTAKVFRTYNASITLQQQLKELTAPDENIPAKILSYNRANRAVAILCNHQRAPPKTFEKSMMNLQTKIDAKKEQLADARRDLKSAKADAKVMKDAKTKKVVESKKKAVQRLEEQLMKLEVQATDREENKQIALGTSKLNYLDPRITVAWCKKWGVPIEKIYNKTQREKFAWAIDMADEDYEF

N[C@@H](CCC(=O)N[C@@H](CSC1C=C(O)C(=O)C1)C(=O)NCC(=O)O)C(=O)O (stereo partly shown) [GM, 2-hydroxy-4-glutathion-S-yl-2-cyclopenten-1-one]
survival rate of cells ([1]; 16 μM, compared with CEM-SS): decreased more significantly
survival rate of cells ([1]; 4 or 8 μM): the survival rate significantly decreased depending upon the concentration
selective cytocidal effect to HIV-infected cells, antiviral action to HIV ([1]; Example 15): selective cytocidal effect to HIV-infected cells
IgE Titer (antigen-specific IgE; 3 mg/kg/day i.p.): 32
IgE Titer (antigen-specific IgE; 30 mg/kg/day i.p.): 8
inhibiting activity to IgE production (in words) (antigen-specific IgE; rat, in vivo): inhibited by administration of GM in a dose-dependent manner
survival rate of cells (CEM-SS cells; 16 μM): the survival rate of CEM-SS cells decreased as well
survival rate of cells (CEM-SS cells; 4 or 8 μM): survival rate did not decrease in CEM-SS cells
degree of growth of cell (A450 - A650) ([2]; 2.5 μM, 24 hours, 0 μM 0.846): 0.768
degree of growth of cell (A450 - A650) ([2]; 2.5 μM, 48 hours, 0 μM 1.270): 1.133
degree of growth of cell (A450 - A650) ([2]; 5 μM, 24 hours, 0 μM 0.846): 0.621
degree of growth of cell (A450 - A650) ([2]; 5 μM, 48 hours, 0 μM 1.270): 0.942
production of apoptic bodies ([2]; 10 μM): production of apoptic bodies was noted
degree of growth of cell (A450 - A650) ([2]; 10 μM, 24 hours, 0 μM 0.846): 0.420
degree of growth of cell (A450 - A650) ([2]; 10 μM, 48 hours, 0 μM 1.270): 0.486
degree of growth of cell (A450 - A650) ([2]; 20 μM, 24 hours, 0 μM 0.846): 0.238
degree of growth of cell (A450 - A650) ([2]; 20 μM, 48 hours, 0 μM 1.270): 0.185
degree of growth of cell (A450 - A650) ([2]; 30 μM, 24 hours, 0 μM 0.846): 0.241
degree of growth of cell (A450 - A650) ([2]; 30 μM, 48 hours, 0 μM 1.270): 0.196
apoptosis-inducing and growth-inhibiting action to synovial cells (in words) ([2]; Example 11): apoptosis-inducing action and growth-inhibiting action to synovial cells
minimal effective concentration ([2]; Homo sapiens, Fibroblast, 24 and 48 hours, vs control, read-out: concentration at which cell growth was inhibited): ≥ 5 µM
inhibition of topoisomerase I (topoisomerase I): topoisomerase I was inhibited by 1 mM GM
effect in the growth of cells (Jurkat cells; 5 μM or less): no significant effect in the growth of cells
inhibition at 10 µM (Jurkat cells; Homo sapiens, 10 μM, read-out: inhibition of cell growth): ~50%
inhibition at 20 µM (Jurkat cells; Homo sapiens, 20 μM, read-out: inhibition of cell growth): ≥ 75%
